Reference: patent publication US10919852B2, “Immunomodulator compounds” (CHEMOCENTRYX, INC., priority 2017, dated 2021)

target: human PD-L1 / Human PD-1 (Homo sapiens (Human), UniProt Q9NZQ7); assay: Enzyme-Linked Immunosorbent Assay (ELISA), PD-1/PD-L1 binding; conditions: plate-coated human PD-L1, biotinylated human PD-1
Procedure, shortened: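 Compound dilutions (1:5 series) competed with 0.3 μg/mL biotin-labelled human PD-1 for PD-L1 immobilised at […], for 1 h at 37 °C. Read-out was A450 after streptavidin-HRP and a 20 min TMB reaction, stopped with 2 N H2SO4.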

human PD-L1 / Human PD-1, sequence (Q9NZQ7 19-239): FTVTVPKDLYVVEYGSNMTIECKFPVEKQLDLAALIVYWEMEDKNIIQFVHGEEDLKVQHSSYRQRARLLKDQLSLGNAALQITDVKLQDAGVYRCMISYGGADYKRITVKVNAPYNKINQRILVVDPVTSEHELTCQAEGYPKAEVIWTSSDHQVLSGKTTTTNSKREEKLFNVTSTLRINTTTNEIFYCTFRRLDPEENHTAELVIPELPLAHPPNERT

Compound	IC50 [nM]
Cc1c(OCCCN2CCC(O)CC2)cccc1-c1cccc2c1CC[C@@H]2Oc1cc(OCc2cncc(C#N)c2)c(CN[C@@H]2CCCC[C@@H]2O)cc1Cl	< 5
Cc1c(OCCCN2CC3(CC(O)C3)C2)cccc1-c1cccc2c1CC[C@@H]2Oc1cc(OCc2cncc(C#N)c2)c(CN[C@H](C(=O)O)[C@@H](C)O)cc1Cl	< 5
COC(=O)[C@@H](NCc1cc(Cl)c(O[C@H]2CCc3c(-c4cccc(OCCCN5CCC(O)CC5)c4C)cccc32)cc1OCc1cncc(C#N)c1)[C@@H](C)O	5 to 500
CCOC(=O)[C@@H](NCc1cc(Cl)c(O[C@H]2CCc3c(-c4cccc(OCCCN5CCC(O)CC5)c4C)cccc32)cc1OCc1cncc(C#N)c1)[C@@H](C)O	5 to 500
N#Cc1cncc(COc2cc(O[C@H]3CCc4c(-c5cccc(OCCCN6CCC6)c5Cl)cccc43)c(Cl)cc2CNC[C@@H]2CCC(=O)N2)c1	< 5
CN1CCC(COc2cccc(-c3cccc4c3CC[C@@H]4Oc3cc(OCc4cncc(C#N)c4)c(CNC[C@@H]4CCC(=O)N4)cc3Cl)c2Cl)C1 (stereo partly drawn)	< 5
Cc1c(OCCCN2CCCC[C@H]2C)cccc1-c1cccc2c1CC[C@@H]2Oc1cc(OCc2cc(C#N)cc(C#N)c2)c(CNC[C@H]2CCC(=O)N2)cc1Cl	< 5
Cc1c(OCCCN2CCC(C)(C)CC2)cccc1-c1cccc2c1CC[C@@H]2Oc1cc(OCc2cc(C#N)cc(C#N)c2)c(CN[C@H]2CCC(=O)NC2)cc1Cl	5 to 500
CC1(F)CCN(CCCOc2cccc(-c3cccc4c3CC[C@@H]4Oc3cc(OCc4cncc(C#N)c4)c(CN4CC5(C4)NC(=O)NC5=O)cc3Cl)c2Cl)CC1	5 to 500
Cc1c(OCCCN2CCC(F)CC2)cccc1-c1cccc2c1CC[C@@H]2Oc1cc(OCc2cc(C#N)cc(C#N)c2)c(CN[C@H]2CCCCNC2=O)cc1Cl	5 to 500
CC1(F)CCN(CCCOc2cccc(-c3cccc4c3CC[C@@H]4Oc3cc(OCc4cncc(C#N)c4)c(CN4CCC5(C4)NC(=O)NC5=O)cc3Cl)c2Cl)CC1 (stereo partly drawn)	5 to 500
CC1(F)CCN(CCCOc2cccc(-c3cccc4c3CC[C@@H]4Oc3cc(OCc4cncc(C#N)c4)c(CN[C@@H]4CCC(=O)NC4)cc3Cl)c2Cl)CC1	5 to 500
Cc1c(OCCCN2CCCC[C@@H]2C)cccc1-c1cccc2c1CC[C@@H]2Oc1cc(OCc2cc(C#N)cc(C#N)c2)c(CNC[C@H]2CCC(=O)N2)cc1Cl	5 to 500
CC1(F)CCN(CCCOc2cccc(-c3cccc4c3CC[C@@H]4Oc3cc(OCc4cncc(C#N)c4)c(CNC[C@H]4CCC(=O)N4)cc3Cl)c2Cl)CC1	5 to 500
Cc1c(OCCCN2CCCC[C@@H]2C)cccc1-c1cccc2c1CC[C@@H]2Oc1cc(OCc2cc(C#N)cc(C#N)c2)c(CNC[C@@H]2CCC(=O)N2)cc1Cl	< 5
Cc1c(OCCCN2CCC2)cccc1-c1cccc2c1CC[C@@H]2Oc1cc(OCc2cc(C#N)cc(C#N)c2)c(CNC[C@H]2CCC(=O)N2)cc1Cl	< 5
CC1(F)CCN(CCCOc2cccc(-c3cccc4c3CC[C@@H]4Oc3cc(OCc4cncc(C#N)c4)c(CNC[C@@H]4CCC(=O)N4)cc3Cl)c2Cl)CC1	< 5
Cc1c(OCCCN2CCC(C)(F)CC2)cccc1-c1cccc2c1CC[C@@H]2Oc1cc(OCc2cc(C#N)cc(C#N)c2)c(CN2CC3(C2)NC(=O)NC3=O)cc1Cl	500 to 20000
Cc1c(OCCCN2CCC(C)(F)CC2)cccc1-c1cccc2c1CC[C@@H]2Oc1cc(OCc2cc(C#N)cc(C#N)c2)c(CN[C@H]2CCC(=O)NC2)cc1Cl	5 to 500
Cc1c(OCCCN2CCC(C)(F)CC2)cccc1-c1cccc2c1CC[C@@H]2Oc1cc(OCc2cc(C#N)cc(C#N)c2)c(CN[C@@H]2CCC(=O)NC2)cc1Cl	5 to 500
Cc1c(OCCCN2CCC(O)CC2(C)C)cccc1-c1cccc2c1CC[C@@H]2Oc1cc(OCc2cc(C#N)cc(C#N)c2)c(CN[C@H]2CCC(=O)NC2)cc1Cl (stereo partly drawn)	< 5

Compound	IC50 [nM]
Cc1c(OCCCN2CCCC2)cccc1-c1cccc2c1CC[C@@H]2Oc1cc(OCc2cc(C#N)cc(C#N)c2)c(CN[C@H]2CCC(=O)NC2)cc1Cl	< 5
Cc1c(OCCCN2CCC(F)CC2)cccc1-c1cccc2c1CC[C@@H]2Oc1cc(OCc2cc(C#N)cc(C#N)c2)c(CNCC(=O)NS(C)(=O)=O)cc1Cl	< 5
Cc1c(OCCCN2CCC(C)(F)CC2)cccc1-c1cccc2c1CC[C@@H]2Oc1cc(OCc2cc(C#N)cc(C#N)c2)c(CN2CCC3(C2)NC(=O)NC3=O)cc1Cl (stereo partly drawn)	5 to 500
Cc1c(OCCCN2CCC(C)(F)CC2)cccc1-c1cccc2c1CC[C@@H]2Oc1cc(OCc2cc(C#N)cc(C#N)c2)c(CN[C@H]2CCC[C@@H]2O)cc1Cl	5 to 500
Cc1c(OCCCN2CCCCC2(C)C)cccc1-c1cccc2c1CC[C@@H]2Oc1cc(OCc2cc(C#N)cc(C#N)c2)c(CNC[C@H]2CCC(=O)N2)cc1Cl	5 to 500
Cc1c(OCCCN2CCC(C)(F)C2)cccc1-c1cccc2c1CC[C@@H]2Oc1cc(OCc2cc(C#N)cc(C#N)c2)c(CN[C@H]2CCC(=O)NC2)cc1Cl (stereo partly drawn)	5 to 500
CCN1CCC(COc2cccc(-c3cccc4c3CC[C@@H]4Oc3cc(OCc4cncc(C#N)c4)c(CNC[C@@H]4CCC(=O)N4)cc3Cl)c2Cl)C1 (stereo partly drawn)	< 5
CC(C)N1CCC(COc2cccc(-c3cccc4c3CC[C@@H]4Oc3cc(OCc4cncc(C#N)c4)c(CNC[C@@H]4CCC(=O)N4)cc3Cl)c2Cl)C1 (stereo partly drawn)	< 5
CC(C)N1CCC(COc2cccc(-c3cccc4c3CC[C@@H]4Oc3cc(OCc4cncc(C#N)c4)c(CN[C@H]4CCC(=O)NC4)cc3Cl)c2Cl)C1 (stereo partly drawn)	< 5
Cc1c(OCCCN2CCC(F)CC2)cccc1-c1cccc2c1C[C@H](F)[C@@H]2Oc1cc(OCc2cc(C#N)cc(C#N)c2)c(CN[C@H]2CCC(=O)NC2)cc1Cl	5 to 500
Cc1c(OCCCN2CCC(C)(F)CC2)cccc1-c1cccc2c1C[C@H](F)[C@@H]2Oc1cc(OCc2cc(C#N)cc(C#N)c2)c(CN[C@H]2CCC(=O)NC2)cc1Cl	5 to 500
Cc1c(OCCCN2CCCC2(C)C)cccc1-c1cccc2c1CC[C@@H]2Oc1cc(OCc2cc(C#N)cc(C#N)c2)c(CN[C@H]2CCC(=O)NC2)cc1Cl	< 5
CCN1CCC(COc2cccc(-c3cccc4c3CC[C@@H]4Oc3cc(OCc4cncc(C#N)c4)c(CN[C@H]4CCC(=O)NC4)cc3Cl)c2Cl)C1 (stereo partly drawn)	< 5
Cc1c(OCCCN2CCC(F)CC2)cccc1-c1cc(F)cc2c1CC[C@@H]2Oc1cc(OCc2cc(C#N)cc(C#N)c2)c(CN[C@H]2CCC(=O)NC2)cc1Cl	5 to 500
Cc1c(OCCCN2CCC(F)CC2)cccc1-c1cccc2c1CC[C@@H]2Oc1cc(OCc2cc(C#N)cc(C#N)c2)c(CN[C@H]2CCCNC2=O)cc1Cl	5 to 500
Cc1c(OCCCN2CCC(F)CC2)cccc1-c1cccc2c1CC[C@@H]2Oc1cc(OCc2cc(C#N)cc(C#N)c2)c(CN[C@@H]2CCCNC2=O)cc1Cl	5 to 500
Cc1c(OCCCN2CCC(F)CC2)cccc1-c1cccc2c1C[C@@H](F)[C@@H]2Oc1cc(OCc2cc(C#N)cc(C#N)c2)c(CN[C@H]2CCC(=O)NC2)cc1Cl	5 to 500
Cc1c(OCCCN2CCC(C)(F)CC2)cccc1-c1cccc2c1C[C@@H](F)[C@@H]2Oc1cc(OCc2cc(C#N)cc(C#N)c2)c(CN[C@H]2CCC(=O)NC2)cc1Cl	5 to 500
Cc1c(OCCCN2CCC(F)CC2)cccc1-c1cccc2c1CC[C@@H]2Oc1cc(OCc2cc(C#N)cc(C#N)c2)c(CN[C@@H]2CCC(=O)NC2=O)cc1Cl	5 to 500
Cc1c(OCCCN2C(C)(C)CCCC2(C)C)cccc1-c1cccc2c1CC[C@@H]2Oc1cc(OCc2cc(C#N)cc(C#N)c2)c(CN[C@H]2CCC(=O)NC2)cc1Cl	5 to 500
CCOc1cc(O[C@H]2CCc3c(-c4cccc(OCCCN5CCC(F)CC5)c4Cl)cccc32)c(Cl)cc1CN[C@@H]1CCC(=O)NC1	5 to 500
